Reference: patent publication US20150087649A1, “TREATING DISORDERS ASSOCIATED WITH ABERRANT ADRENOCORTICAL CELL BEHAVIOR” (Atterocor, Inc., priority 2013, published 2015)
Where two headings read alike, the source gives them in different places. One block for each compound: values may come before it.

Columns and labels:
human ACAT1 = biological target: T1, human ACAT1 (Homo sapiens, UniProt P35610, Q526R); test: Fluorescent cell-based assay measuring esterification of NBD-cholesterol in AC29 cells expressing huACAT1
T1 construct: expressed in transfected cells
T1 sequence (P35610 1-550 Q526R): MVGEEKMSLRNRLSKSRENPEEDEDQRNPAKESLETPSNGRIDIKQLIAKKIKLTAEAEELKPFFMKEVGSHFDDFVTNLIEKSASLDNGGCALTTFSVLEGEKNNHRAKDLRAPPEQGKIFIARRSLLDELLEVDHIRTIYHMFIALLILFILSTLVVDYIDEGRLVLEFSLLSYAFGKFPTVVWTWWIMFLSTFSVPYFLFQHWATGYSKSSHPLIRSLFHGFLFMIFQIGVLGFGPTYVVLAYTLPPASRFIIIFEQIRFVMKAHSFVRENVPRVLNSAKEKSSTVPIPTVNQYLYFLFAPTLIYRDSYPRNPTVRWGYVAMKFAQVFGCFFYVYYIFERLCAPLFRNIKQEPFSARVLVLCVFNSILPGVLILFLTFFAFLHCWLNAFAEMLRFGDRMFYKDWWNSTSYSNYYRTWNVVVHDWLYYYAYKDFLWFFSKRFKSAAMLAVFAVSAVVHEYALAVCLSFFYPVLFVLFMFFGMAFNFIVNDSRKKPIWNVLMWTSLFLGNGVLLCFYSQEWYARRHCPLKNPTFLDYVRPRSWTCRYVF
Source text: In the methods described herein, the agent inhibits the ability of huACAT1 to catalyze the esterification of free cholesterol into cholesteryl ester. […] AC29 cells lack endogenous ACAT1 activity and are transfected to express human ACAT1. The assay uses 22-[N-(7-nitrobenz-2-oxa-1,3-diazol-4-yl)amino]-23,24-bisnor-5-cholen-3-ol (NBD-cholesterol), a fluorescent sterol analog in which the NBD moiety replaces the terminal segment of the alkyl tail of cholesterol. […] In a polar environment, NBD-cholesterol is weakly fluorescent. In a nonpolar environment, NBD-cholesterol is strongly fluorescent. The fluorescent property of NBD-cholesterol is used to measure ACAT activity, as cholesterol is a polar lipid and cholesteryl ester is nonpolar. Untransfected AC29 cells or AC29 cells expressing huACAT1 treated with a known ACAT inhibitor can be used to determine background fluorescence due to free-NBD-cholesterol.
(§1) Cells were maintained in monolayer at 37° C. in 5% CO2 in Ham's F-12 medium supplemented with 1% Eagle's vitamins, penicillin (100 units/ml), streptomycin (100 μg/ml), and 10% heat-inactivated fetal bovine serum, and cells were typically grown to 70-90% confluence for all experiments.
(§2) Human ACAT1 activity was assessed using a fluorescent cell-based assay as described in Lada et al. (supra). The assay uses 22-[N-(7-nitrobenz-2-oxa-1,3-diazol-4-yl)amino]-23,24-bisnor-5-cholen-3-ol (NBD-cholesterol), a fluorescent sterol analog in which the NBD moiety replaces the terminal segment of the alkyl tail of cholesterol. […] In a polar environment, NBD-cholesterol is weakly fluorescent. In a nonpolar environment, NBD-cholesterol strongly is strongly fluorescent. The fluorescent property of NBD-cholesterol is used to measure ACAT activity, as cholesterol is a polar lipid and cholesteryl ester is nonpolar. 3×10^5 cells per well were plated on Falcon 96-well culture plates and allowed to recover overnight. Assays were performed with cells that are at least 80% confluent. Media was aspirated and wells were pre-incubated with 100 μL of dilutions of control and test compounds from 1000× stock solutions in DMSO (or other neutral diluent e.g., methanol, ethanol, or water) for 20 minutes. Media was removed and replaced with 100 μL of medium containing the same dilution of compound or vehicle as in the pre-incubation and 1 μg/ml NBD-cholesterol and incubated for 6 hr at 37° C. (Lada et al., supra). […] Parental AC29 cells incubated with NBD-cholesterol or ACAT1-expressing cells incubated with NBD-cholesterol and the […] were used to determine background fluorescence attributable to free NBD-cholesterol. After incubation, medium is removed, and the cells were washed two times with cold balanced salt solution (BSS). […] Cholesteryl ester (CE) fluorescence was calculated by subtracting the background from the total fluorescence, and these values were normalized by cellular protein.

human ACAT2 = biological target: T2, human ACAT2 (Homo sapiens, UniProt O75908); test: Fluorescent NBD-cholesterol esterification assay in AC29 stable transfectants, Table 2; type: cell-based
T2 sequence (O75908 1-522): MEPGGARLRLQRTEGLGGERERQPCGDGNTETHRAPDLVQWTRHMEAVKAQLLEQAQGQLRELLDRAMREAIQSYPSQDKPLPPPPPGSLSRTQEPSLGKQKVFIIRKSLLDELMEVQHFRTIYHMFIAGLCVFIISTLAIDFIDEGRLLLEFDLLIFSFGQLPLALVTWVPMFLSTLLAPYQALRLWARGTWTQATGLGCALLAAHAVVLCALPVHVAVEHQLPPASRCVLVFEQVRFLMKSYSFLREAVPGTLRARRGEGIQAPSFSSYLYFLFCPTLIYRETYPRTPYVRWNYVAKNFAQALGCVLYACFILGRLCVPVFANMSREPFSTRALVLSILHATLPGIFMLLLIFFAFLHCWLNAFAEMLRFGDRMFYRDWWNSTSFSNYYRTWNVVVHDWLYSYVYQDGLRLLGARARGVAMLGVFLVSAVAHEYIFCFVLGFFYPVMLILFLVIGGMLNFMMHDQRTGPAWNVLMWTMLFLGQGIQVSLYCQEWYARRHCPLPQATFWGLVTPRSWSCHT
Experimental: [The procedure below names another target; the source lists this target under the same test.] as §1, §2

H295R cells [1] = test: Caspase-3/7 activity (Apotox-Glo) in H295R cells with exogenous cholesterol; type: cell-based, human; conditions: compound at its ACAT1 IC50 concentration, 45 ug/mL exogenous cholesterol, 5 hours
Experimental: Commercially-available assay kits may also be employed to measure Caspase 3/7 activity, including for example the Apotox-Glo Assay Kit (Promega). […] H295R cells are plated at 500,000 cells/well in a 12 well plate. After overnight incubation at 37° C., media is removed and replaced with media containing vehicle (DMSO) or one of the ACAT1 inhibitors at its ACAT1 IC50 concentration in the presence of 45 ug/mL exogenous cholesterol. After 5 hours of treatment, cells are harvested, washed and assayed for Caspase-3/7 activity using the Apotox-Glo Assay Kit (Promega).

H295R = test: Free and esterified cholesterol in H295R cells with exogenous cholesterol; type: cell-based, human; conditions: compound at its ACAT1 IC50 concentration, 45 μg/ml cholesterol
Experimental: In this study, H295R were plated at 200,000 cells/well in a 24 well plate. After overnight incubation at 37° C., media was removed and replaced with treatment media (test compound at its ACAT1 IC50 concentrations containing 45 μg/ml cholesterol) or vehicle (DMSO). After treatment of cells for various lengths of time (minutes to hours), media was removed and cells are washed twice with cold PBS. 200 ul of hexane/isopropanol (3:2) was then added to each well, the plate was rocked at room temperature for 1 hour, and the supernatant was transferred to glass vials and allowed to air dry. Residual lipids were resuspended and total cholesterol and free cholesterol were measured using the Cholesterol Fluorometric Assay Kit (Cayman Chemical). Cholesterol ester was determined by subtracting free cholesterol from total cholesterol.

H295R cells [2] = test: XBP-1 splicing (unfolded protein response) in H295R cells with exogenous cholesterol; type: cell-based, human; conditions: compound at its ACAT1 IC50 concentration, 45 ug/mL exogenous cholesterol, 5 hours
Experimental: Treatment of H295R cells by an agent can result in chronic disruption of cholesterol homeostasis that may lead to activation of the UPR and/or triggering of the programmed cell death response and the induction apoptotic markers.
H295R adrenocortical cells are plated at 500,000 cells/well in a 12-well culture plate as described in Example 8. […]. After 5 hours of treatment, RNA is extracted using the Qiagen RNEasy® Plus kit and 1 μg RNA is reverse transcribed using Applied Biosystems® High-Capacity cDNA Reverse Transcription Kit. XBP-1 splicing product is amplified by PCR using primer pairs that allow detection of the activated isoform (5′-[…]-3′ (SEQ ID NO:15) and 5′-[…]-3′ (SEQ ID NO:16)) under the following conditions: 1) 95° C. for 30 sec, 2) 95° C. for 15 sec; 3) 50° C. for 15 sec, 4) 68° C. for 30 sec. […] Amplification steps 2 through 4 are repeated for 30 cycles. PCR product is resolved on a 5% agarose gel. DTT treated cells serve as a positive control for XBP-1 splicing. An increase in the XBP-1 splice variant expression of greater than 20% is considered significant.

adrenocortical cells = conditions: as reported in the literature; cited from earlier work
[3] = tested on: adrenocortical carcinoma (ACC); conditions: cited from earlier work
[4] = Table 2, first IC50 column, AC29 cells expressing huACAT1, 1 μg/ml NBD-cholesterol, 6 hr, read-out: IC50 huACAT1
[5] = Table 2, second IC50 column (head repeats huACAT1), AC29 transfectants, NBD-cholesterol, read-out: IC50 huACAT1
[6] = Table 3, determined as described in Example 1, read-out: ACAT1 IC50

IC50 (human ACAT1; [4]): 20 nM
IC50 (human ACAT2; [5]): 21 nM
SMILES: CCCCCCCCCCCCCOC(=O)C(C(=O)Nc1c(C(C)C)cccc1C(C)C)c1ccccc1 (centres unmarked) [Compound 2]

IC50 (human ACAT1; [4]): 1.8 nM
IC50 (human ACAT2; [5]): 18 nM
SMILES: CCCCC[C@H]1C=C[C@@H](CCCCC)SC1[C@@H](C)Nc1c(SC)cc(C)nc1SC (some centres unmarked) [Compound 6]

IC50 (human ACAT1; [4]): 540 nM
SMILES: CCCCCCCCC(C)(C)C(=O)Nc1c(OC)cc(OC)cc1OC [Compound 7]

Further lines, the compound ahead of its results:

SMILES: CC(C)c1cccc(C(C)C)c1OC(=O)NS(=O)(=O)Oc1c(C(C)C)cccc1C(C)C [Compound 1]
IC50 (human ACAT1): 2400 nM
IC50 (human ACAT2): 440 nM

SMILES: CCCCCCCCCCCCn1nnc(C(C(=O)Nc2c(C(C)C)cccc2C(C)C)c2ccccc2)n1 (centres unmarked) [Compound 3, 2H-Tetrazole-5-acetamide, N-[2,6-bis(1-methylethyl)phenyl]-2-dodecyl-a-phenyl-]
IC50 (human ACAT1; [4]): 2000 nM
IC50 (human ACAT1; [6]): 11 nM
IC50 (human ACAT2; [5]): 510 nM
Caspase-3/7 activity compared to vehicle (H295R cells [1]): significant increases
free cholesterol compared to vehicle (H295R): increase in free cholesterol
splicing of XBP-1 compared to vehicle (H295R cells [2]): significant splicing of XBP-1
Adrenal activity (adrenocortical cells): Adrenal acting

SMILES: Cc1ccc2oc(CN(Cc3ccccc3)C(=O)Nc3c(F)cc(F)cc3F)c(-c3ccc(Cl)cc3)c2c1 [Compound 5]
IC50 (human ACAT1; [4]): 6 nM
IC50 (human ACAT1; [6]): 10 nM
IC50 (human ACAT2; [5]): 80 nM
Caspase-3/7 activity compared to vehicle (H295R cells [1]): significant increases
free cholesterol compared to vehicle (H295R): increase in free cholesterol
splicing of XBP-1 compared to vehicle (H295R cells [2]): significant splicing of XBP-1
Adrenal activity (adrenocortical cells): Adrenal acting

SMILES: Clc1ccc(C(c2ccccc2Cl)C(Cl)Cl)cc1 (centres unmarked) [mitotane]
delay of disease progression, average ([3]; ACC patients that derive a therapeutic benefit): five
share of patients with increased progression-free survival ([3]; ACC patients): one-quarter to one-third
